# According to patent US20230102554A1 (GB002, INC., priority 2019, published 2023):
# Tests used:
# [1] = molecular target: T1, Human PDGFRα, cytoplasmic domain (GST-PDGFRα) (Homo sapiens, UniProt P16234); assay: Human PDGFRα biochemical inhibition assay (off-chip Mobility Shift Assay)
# T1 construct: made in house
# [2] = molecular target: T2, Human PDGFRβ, cytoplasmic domain (GST-PDGFRβ) (Homo sapiens, UniProt P09619); assay: Human PDGFRβ biochemical inhibition assay (off-chip Mobility Shift Assay)
# T2 construct: made in house
# Procedure, shortened: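 GST-tagged cytoplasmic domain (aa 557-1106) from baculovirus was incubated 1 h at room temperature with compound, CSKtide, ATP at Km and Mg²⁺ in HEPES buffer, pH 7.5. Phosphorylated and unphosphorylated peptide were separated by off-chip mobility shift, and the product ratio P/(P+S) gave percent inhibition.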
# T2 sequence (P09619 with tags, fused parts or gaps): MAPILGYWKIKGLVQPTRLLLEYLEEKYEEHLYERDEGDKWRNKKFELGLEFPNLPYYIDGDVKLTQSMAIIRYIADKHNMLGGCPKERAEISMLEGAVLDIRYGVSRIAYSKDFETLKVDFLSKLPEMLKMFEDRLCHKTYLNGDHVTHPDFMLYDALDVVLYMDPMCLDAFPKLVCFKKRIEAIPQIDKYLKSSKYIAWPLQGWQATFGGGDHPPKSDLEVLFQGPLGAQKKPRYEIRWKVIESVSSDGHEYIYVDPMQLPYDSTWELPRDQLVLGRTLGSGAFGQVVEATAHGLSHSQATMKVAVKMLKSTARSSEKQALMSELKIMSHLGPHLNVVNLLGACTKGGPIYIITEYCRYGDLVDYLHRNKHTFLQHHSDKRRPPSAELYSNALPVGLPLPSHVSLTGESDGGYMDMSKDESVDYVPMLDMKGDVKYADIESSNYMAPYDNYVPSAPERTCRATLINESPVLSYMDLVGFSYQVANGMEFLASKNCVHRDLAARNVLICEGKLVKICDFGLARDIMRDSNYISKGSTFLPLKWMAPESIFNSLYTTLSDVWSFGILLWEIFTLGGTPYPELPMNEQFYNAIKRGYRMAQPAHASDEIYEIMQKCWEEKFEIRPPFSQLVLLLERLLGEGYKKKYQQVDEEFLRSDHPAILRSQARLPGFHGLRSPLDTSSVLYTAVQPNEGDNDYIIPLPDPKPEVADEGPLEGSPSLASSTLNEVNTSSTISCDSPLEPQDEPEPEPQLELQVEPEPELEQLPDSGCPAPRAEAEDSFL
# T1 sequence (P16234 550-1089 T674I): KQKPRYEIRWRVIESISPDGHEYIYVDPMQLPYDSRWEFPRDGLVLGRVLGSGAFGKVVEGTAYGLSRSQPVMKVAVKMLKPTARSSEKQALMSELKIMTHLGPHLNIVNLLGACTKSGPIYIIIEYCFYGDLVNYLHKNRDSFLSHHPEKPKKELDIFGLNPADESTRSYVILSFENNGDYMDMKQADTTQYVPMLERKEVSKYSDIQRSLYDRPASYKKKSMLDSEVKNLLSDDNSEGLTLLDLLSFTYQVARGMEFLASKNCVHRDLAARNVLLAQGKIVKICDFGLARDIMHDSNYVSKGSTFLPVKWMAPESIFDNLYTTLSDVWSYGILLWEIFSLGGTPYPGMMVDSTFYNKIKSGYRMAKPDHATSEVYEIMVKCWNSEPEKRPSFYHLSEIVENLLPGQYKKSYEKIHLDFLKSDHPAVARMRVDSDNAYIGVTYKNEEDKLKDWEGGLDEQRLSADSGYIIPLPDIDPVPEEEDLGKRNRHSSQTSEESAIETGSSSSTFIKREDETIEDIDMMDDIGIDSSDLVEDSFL
SMILES,IC50 [1],IC50 [2]
"CCn1cc2ncc(N[C@@H](C)c3cccc(NC(=O)c4ccc(NC)nc4)c3)nc2n1 [Compound 393, (S)-N-(3-(1-((2-ethyl-2H-pyrazolo[3,4-b]pyrazin-6-yl)amino)ethyl)phenyl)-6-(methylamino)nicotinamide]",300 to 1000 nM,≥ 1000 nM
"CCc1ncc(C(=O)Nc2cccc([C@H](C)Nc3cnc4cn(CC)nc4n3)c2)s1 [Compound 341, (S)-2-ethyl-N-(3-(1-((2-ethyl-2H-pyrazolo[3,4-b]pyrazin-6-yl)amino)ethyl)phenyl)thiazole-5-carboxamide]",< 300 nM,< 300 nM
"CCn1cc2ncc(N[C@@H](C)c3cccc(NC(=O)c4ccc(OC(C)C)nc4)c3)nc2n1 [Compound 287, (S)-N-(3-(1-((2-ethyl-2H-pyrazolo[3,4-b]pyrazin-6-yl)amino)ethyl)phenyl)-6-isopropoxynicotinamide]",< 300 nM,< 300 nM
"CC(C)c1cc(C(=O)Nc2cccc([C@H](C)Nc3cnc4cnn(C)c4n3)c2)on1 [Compound 145, (S)-3-isopropyl-N-(3-(1-((1-methyl-1H-pyrazolo[3,4-b]pyrazin-6-yl)amino)ethyl)phenyl)isoxazole-5-carboxamide]",< 300 nM,< 300 nM
"Cc1cc(C(=O)Nc2cccc([C@H](C)Nc3cnc4[nH]nc(C)c4n3)c2)cnc1C(F)(F)F [Compound 538, (S)-5-methyl-N-(3-(1-((3-methyl-1H-pyrazolo[3,4-b]pyrazin-5-yl)amino)ethyl)phenyl)-6-(trifluoromethyl) nicotinamide]",< 300 nM,< 300 nM
"CCn1cc2ncc(N[C@@H](C)c3cccc(NC(=O)c4ccc(OC(F)(F)F)c(Cl)c4)c3)nc2n1 [Compound 437, (S)-3-chloro-N-(3-(1-((2-ethyl-2H-pyrazolo[3,4-b]pyrazin-6-yl)amino)ethyl)phenyl)-4-(trifluoromethoxy)benzamide]",< 300 nM,< 300 nM
"CCn1cc2ncc(N[C@@H](C)c3cc(NC(=O)Cc4ccccc4F)ccc3C)nc2n1 [Compound 700, (S)-N-(3-(1-((2-ethyl-2H-pyrazolo[3,4-b]pyrazin-6-yl)amino)ethyl)-4-methylphenyl)-2-(2-fluorophenyl)acetamide]",< 300 nM,< 300 nM
"Cc1ccc(C(=O)Nc2cccc([C@H](C)Nc3cnc4cnn(C)c4n3)c2)cc1F [Compound 188, (S)-3-fluoro-4-methyl-N-(3-(1-((1-methyl-1H-pyrazolo[3,4-b]pyrazin-6-yl)amino)ethyl)phenyl)benzamide]",< 300 nM,< 300 nM
"COc1cc(C(=O)Nc2cccc([C@H](C)Nc3cnc4cnn(C)c4n3)c2)cnc1C [Compound 252, (S)-5-methoxy-6-methyl-N-(3-(1-((1-methyl-1H-pyrazolo[3,4-b]pyrazin-6-yl)amino)ethyl)phenyl)nicotinamide]",< 300 nM,< 300 nM
"Cc1cc(C(=O)Nc2cccc([C@H](C)Nc3cnc4cnn(C)c4n3)c2)cnc1O [Compound 253, (S)-6-hydroxy-5-methyl-N-(3-(1-((1-methyl-1H-pyrazolo[3,4-b]pyrazin-6-yl)amino)ethyl)phenyl)nicotinamide]",< 300 nM,≥ 1000 nM
"Cc1cc(C(=O)Nc2cccc([C@H](C)Nc3cnc4cnn(C)c4n3)c2)cnc1C [Compound 206, (S)-5,6-dimethyl-N-(3-(1-((1-methyl-1H-pyrazolo[3,4-b]pyrazin-6-yl)amino)ethyl)phenyl)nicotinamide]",< 300 nM,< 300 nM
"C#Cc1cncc(C(=O)Nc2cccc([C@H](C)Nc3cnc4cnn(C)c4n3)c2)c1 [Compound 113, (S)-5-ethynyl-N-(3-(1-((1-methyl-1H-pyrazolo[3,4-b]pyrazin-6-yl)amino)ethyl)phenyl)nicotinamide]",< 300 nM,300 to 1000 nM
"CCn1cc2ncc(N[C@@H](C)c3cccc(NC(=O)c4ccc(N5CCCC5)c(F)c4)c3)nc2n1 [Compound 441, (S)-N-(3-(1-((2-ethyl-2H-pyrazolo[3,4-b]pyrazin-6-yl)amino)ethyl)phenyl)-3-fluoro-4-(pyrrolidin-1-yl)benzamide]",< 300 nM,< 300 nM
"C[C@H](Nc1cnc2cnn(C)c2n1)c1cccc(NC(=O)c2cnccc2F)c1 [Compound 131, (S)-4-fluoro-N-(3-(1-((1-methyl-1H-pyrazolo[3,4-b]pyrazin-6-yl)amino)ethyl)phenyl) nicotinamide]",300 to 1000 nM,≥ 1000 nM
"CCn1cc2ncc(N[C@@H](C)c3cccc(NC(=O)c4cnc(OC)s4)c3)nc2n1 [Compound 325, (S)-N-(3-(1-((2-ethyl-2H-pyrazolo[3,4-b]pyrazin-6-yl)amino)ethyl)phenyl)-2-methoxythiazole-5-carboxamide]",≥ 1000 nM,≥ 1000 nM
"Cc1cc(C(=O)Nc2cccc([C@H](C)Nc3cnc4cnn(C)c4n3)c2)cnn1 [Compound 132, (S)-6-methyl-N-(3-(1-((1-methyl-1H-pyrazolo[3,4-b]pyrazin-6-yl)amino)ethyl)phenyl)pyridazine-4-carboxamide]",< 300 nM,≥ 1000 nM

SMILES,IC50 [1],IC50 [2]
"Cc1cncc(C(=O)Nc2cccc([C@H](C)Nc3cnc4cnn(C5CCOCC5)c4n3)c2)c1 [Compound 180, (S)-5-methyl-N-(3-(1-((1-(tetrahydro-2H-pyran-4-yl)-1H-pyrazolo[3,4-b]pyrazin-6-yl)amino)ethyl)phenyl) nicotinamide]",300 to 1000 nM,≥ 1000 nM
"C[C@H](Nc1cnc2cnn(C)c2n1)c1cccc(NC(=O)c2ccc(Cl)c(F)c2)c1 [Compound 191, (S)-4-chloro-3-fluoro-N-(3-(1-((1-methyl-1H-pyrazolo[3,4-b]pyrazin-6-yl)amino)ethyl)phenyl)benzamide]",< 300 nM,< 300 nM
"CCn1cc2ncc(N[C@@H](C)c3cccc(NC(=O)c4cnc(N(C)C)c(C)c4)c3)nc2n1 [Compound 348, (S)-6-(dimethylamino)-N-(3-(1-((2-ethyl-2H-pyrazolo[3,4-b]pyrazin-6-yl)amino)ethyl)phenyl)-5-methylnicotinamide]",< 300 nM,< 300 nM
"Cc1cncc(C(=O)Nc2cccc([C@H](C)Nc3cnc4ncccc4n3)c2)c1 [Compound 26, (S)-5-methyl-N-(3-(1-(pyrido[2,3-b]pyrazin-2-ylamino)ethyl)phenyl) nicotinamide]",300 to 1000 nM,≥ 1000 nM
"C[C@H](Nc1cnc2cnn(C)c2n1)c1cccc(NC(=O)c2ccc(NC3CC3)nc2)c1 [Compound 121, (S)-6-(cyclopropylamino)-N-(3-(1-((1-methyl-1H-pyrazolo[3,4-6]pyrazin-6-yl)amino)ethyl)phenyl)nicotinamide]",< 300 nM,< 300 nM
"CCn1cc2ncc(N[C@@H](C)c3cccc(NC(=O)c4ccc(C(=O)N5CCN(C)CC5)c(C)c4)c3)nc2n1 [Compound 472, (S)-N-(3-(1-((2-ethyl-2H-pyrazolo[3,4-b]pyrazin-6-yl)amino)ethyl)phenyl)-3-methyl-4-(4-methylpiperazine-1-carbonyl)benzamide]",< 300 nM,300 to 1000 nM
"CCNc1ncc(C(=O)Nc2cccc([C@H](C)Nc3cnc4cn(CC)nc4n3)c2)cc1C [Compound 333, (S)-N-(3-(1-((2-ethyl-2H-pyrazolo[3,4-b]pyrazin-6-yl)amino)ethyl)phenyl)-6-(ethylamino)-5-methylnicotinamide]",< 300 nM,300 to 1000 nM
"CCn1cc2ncc(N[C@@H](C)c3cccc(NC(=O)c4cncc(C)c4)c3)cc2n1 [Compound 11, (S)—N-(3-(1-((2-ethyl-2H-pyrazolo[4,3-b]pyridin-6-yl)amino)ethyl)phenyl)-5-methylnicotinamide]",< 300 nM,< 300 nM
"COc1cc(C(=O)Nc2cccc([C@H](C)Nc3cnc4cnn(C)c4n3)c2)cnc1Cl [Compound 249, (S)-6-chloro-5-methoxy-N-(3-(1-((1-methyl-1H-pyrazolo[3,4-b]pyrazin-6-yl)amino)ethyl)phenyl)nicotinamide]",< 300 nM,< 300 nM
"CCn1cc2ncc(N[C@@H](C)c3cccc(NC(=O)c4ccc(C(F)F)s4)c3)nc2n1 [Compound 292, (S)-5-(difluoromethyl)-N-(3-(1-((2-ethyl-2H-pyrazolo[3,4-b]pyrazin-6-yl)amino)ethyl)phenyl)thiophene-2-carboxamide]",< 300 nM,< 300 nM
"C[C@H](Nc1cnc2cnn(C)c2n1)c1cccc(NC(=O)c2cncc(Cl)c2)c1 [Compound 109, (S)-5-chloro-N-(3-(1-((1-methyl-1H-pyrazolo[3,4-b]pyrazin-6-yl)amino)ethyl)phenyl)nicotinamide]",< 300 nM,< 300 nM
"CCn1cc2ncc(N[C@@H](C)c3cccc(NC(=O)c4ccc(CN5CCCC(F)(F)C5)c(C)c4)c3)nc2n1 [Compound 474, (S)-4-((3,3-difluoropiperidin-1-yl)methyl)-N-(3-(1-((2-ethyl-2H-pyrazolo[3,4-b]pyrazin-6-yl)amino)ethyl)phenyl)-3-methylbenzamide]",< 300 nM,< 300 nM
"COc1ccc(C(=O)Nc2cccc([C@H](C)Nc3cnc4[nH]cc(-c5cnn(C)c5)c4n3)c2)cn1 [Compound 566, (S)-6-methoxy-N-(3-(1-((7-(1-methyl-1H-pyrazol-4-yl)-5H-pyrrolo[2,3-b]pyrazin-2-yl)amino)ethyl)phenyl) nicotinamide]",< 300 nM,< 300 nM
"CCn1cc2ncc(N[C@@H](C)c3cc(NC(=O)Cc4ccc(F)cn4)ccc3C)nc2n1 [Compound 656, (S)-N-(3-(1-((2-ethyl-2H-pyrazolo[3,4-b]pyrazin-6-yl)amino)ethyl)-4-methylphenyl)-2-(5-fluoropyridin-2-yl) acetamide]",< 300 nM,< 300 nM
"CCn1cc2ncc(N[C@@H](C)c3cccc(NC(=O)Cc4ccc(F)c(Cl)c4)c3)nc2n1 [Compound 631, (S)-2-(3-chloro-4-fluorophenyl)-N-(3-(1-((2-ethyl-2H-pyrazolo[3,4-b]pyrazin-6-yl)amino)ethyl)phenyl)acetamide]",< 300 nM,< 300 nM
